Assay results taken from patent US8463552B1, “Methods for medicinal dosage determination and diagnosis” (priority 2005, dated 2013).

Legend:
[1] = system: whole-brain and regional blood flow; details: total administered dose 0.1 mg/kg; cited from earlier work
[2] = system: brain volumes of interest (BOLD signal); test: BOLD-sensitive fMRI of anesthetized monkey during i.v. infusion of SKF82958; format: in vivo, M. fascicularis; details: 0.1 mg/kg total i.v. infusion from 10 to 15 min; one VOI in one subject; 1.5% isoflurane; FIG. 12
Source text: To determine how the noise levels in the simulation data just described correspond to realistic biological data, we acquired data using BOLD-sensitive fMRI imaging of an anesthetized monkey with administration of the dopamine agonist SKF82958. Experiments were approved in advance by the Washington University Animal Studies Committee and due care was exercised to prevent discomfort to the animal. During imaging sessions the animal's health was monitored by veterinary staff from the Washington University Division of Comparative Medicine. Two male M. fascicularis monkeys were studied. Imaging was done while the animals were ventilated with 1.5% isoflurane in oxygen. We obtained repeated whole-brain BOLD-sensitive fMRI images at a repetition interval of one every 3 seconds over a 40-minute period. At 10 minutes into the imaging session a steady-rate, slow intravenous infusion of the dopamine D1 agonist. SKF82958 was commenced finishing at 15 minutes, with a total administered dose of 0.1 mg/kg. […] Volumes of interest (VOIs) were traced on structural brain images acquired at the same session. These included left and right caudate, left and right putamen, striatum collectively, whole brain, and a midbrain region. Time-activity curves from each VOI were extracted and submitted to the computer method described above. […]

C=CCN1CCc2c(cc(O)c(O)c2Cl)C(c2ccccc2)C1 (stereo not shown) [SKF82958]
effect on whole-brain mean quantitative blood flow [1]: does not affect
effects on regional blood flow consistent with local neuronal activation [1]: produces reliable effects
safety of dose [1]: safe
Emax (magnitude of BOLD response in VOI time-activity curve) [2]: at least 20
